Experimental data as given in patent publication EP4656642A1, “ESTROGEN RECEPTOR PROTEOLYSIS TARGETING CHIMERA COMPOUND AND USE THEREOF” (GAN & LEE PHARM CO., LTD, priority 2023, dated 2024).

Legend:
Format in all cases: cell-based
T-47D cells = assay: Inhibition of cell proliferation in T-47D cells (CCK-8, 6 days); conditions: 6 days of treatment
Procedure, shortened: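 T-47D cells at 3,000 cells/well in RPMI 1640 with 10% FBS were exposed to a concentration series of PROTAC compounds for 6 days at 37 °C, 5% CO2. Viability was read by CCK-8, and IC50 values were derived for proliferation inhibition.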

MCF-7 cells = assay: Inhibition of cell proliferation of MCF-7 cells (CCK-8, 9 days)
Procedure, shortened: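 MCF-7 cells seeded at 800 cells/well in DMEM with 10% FBS, exposed to a range of compound concentrations for 9 days at 37°C, 5% CO2. Viability read by CCK-8; IC50 derived for proliferation inhibition.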

ERα [1] = target: T1, ERα (Homo sapiens, UniProt P03372); assay: Degradation of ERα in MCF-7 cells (immunoblotting, 4 h)
T1 sequence (P03372 1-595): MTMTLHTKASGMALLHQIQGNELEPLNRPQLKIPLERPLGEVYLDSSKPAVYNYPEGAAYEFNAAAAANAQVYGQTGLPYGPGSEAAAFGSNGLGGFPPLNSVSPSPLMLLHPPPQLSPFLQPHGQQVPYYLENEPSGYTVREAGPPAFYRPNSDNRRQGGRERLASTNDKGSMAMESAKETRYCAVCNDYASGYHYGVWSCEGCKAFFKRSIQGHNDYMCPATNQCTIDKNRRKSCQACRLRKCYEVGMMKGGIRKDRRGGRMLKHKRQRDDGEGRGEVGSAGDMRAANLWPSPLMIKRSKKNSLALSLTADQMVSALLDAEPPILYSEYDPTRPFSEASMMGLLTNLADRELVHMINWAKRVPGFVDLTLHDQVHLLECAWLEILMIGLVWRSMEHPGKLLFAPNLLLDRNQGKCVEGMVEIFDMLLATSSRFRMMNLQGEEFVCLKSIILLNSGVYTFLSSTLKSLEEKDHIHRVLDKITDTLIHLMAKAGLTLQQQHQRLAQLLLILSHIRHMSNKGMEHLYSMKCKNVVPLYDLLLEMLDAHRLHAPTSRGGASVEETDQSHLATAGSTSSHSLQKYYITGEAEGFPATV
Procedure, shortened: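 MCF-7 cells treated 4 h at 37°C with compounds at 0.15-1000nM final. ERα in lysates measured by immunoblot, with band grayscale normalized to an internal reference protein. Degradation rate calculated against DMSO-treated control.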

ERα [2] = target: T1, ERα; assay: Degradation of ERα in T-47D cells (immunoblotting, 4 h); parameters: host or cells: T-47D
Procedure, shortened: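 T-47D cells were treated with compound (final 0.15-1000 nM, DMSO) for 4 h at 37°C, 5% CO2. Cells were lysed in RIPA buffer with protease inhibitor, and ERα protein in the cleared lysate was measured by immunoblotting.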

[3] = treated for 9 days, CCK-8 kit (Table 6)
[4] = 9 days of treatment, CCK-8, Table 5

`C[C@@H]1Cc2c([nH]c3ccccc23)[C@@H](c2c(F)cc(N3CCN(C[C@H]4CC[C@H](C(=O)N5CCC6(CC5)COc5c6ccc6c5CN(C5CCC(=O)NC5=O)C6=O)CC4)CC3)cc2F)N1CC(F)F` (stereo partly drawn) [A114] was tested, and the IC50 (T-47D cells; Table 3) was 1.18 nM, the IC50 (MCF-7 cells; [3]) was 10.3 nM and the “Degradation rate (%) of ERα in MCF-7 cells” value (ERα [1]; 1nM compound) was 46%. The “Degradation rate (%) of ERα in MCF-7 cells” value (ERα [1]; 10nM compound) was 62%, the “Degradation rate (%) of ERα in T-47D cells” value (ERα [2]; 1nM compound) was 48% and the “Degradation rate (%) of ERα in T-47D cells” value (ERα [2]; 10nM compound) was 73%.
`O=C1CCC(N2Cc3c(ccc4c3OCC43CCN(C[C@H]4CC[C@H](C#Cc5ccc([C@@H]6c7ccc(O)cc7CC[C@@H]6c6ccccc6)cc5)CC4)CC3)C2=O)C(=O)N1` (stereo partly drawn) [A115] was tested, and the IC50 (T-47D cells; Table 3) was 10.9 nM, the IC50 (MCF-7 cells; [3]) was 60.6 nM and the “Degradation rate (%) of ERα in MCF-7 cells” value (ERα [1]; 1nM compound) was 0%. For the same molecule, the “Degradation rate (%) of ERα in MCF-7 cells” value (ERα [1]; 10nM compound) was 16%, the “Degradation rate (%) of ERα in T-47D cells” value (ERα [2]; 1nM compound) was 17% and the “Degradation rate (%) of ERα in T-47D cells” value (ERα [2]; 10nM compound) was 43%.
For `O=C1CCC(N2Cc3c(ccc4c3OCC43CCN(C4CCN(CC5CCN(c6ccc([C@@H]7c8ccc(O)cc8CC[C@@H]7c7ccccc7)cc6)CC5)C(=O)C4)CC3)C2=O)C(=O)N1` (stereo partly drawn) [A116], the IC50 (T-47D cells; Table 3) was 1.61 nM, the IC50 (MCF-7 cells; [3]) was 25200 nM and the “Degradation rate (%) of ERα in MCF-7 cells” value (ERα [1]; 1nM compound) was 25%. The “Degradation rate (%) of ERα in MCF-7 cells” value (ERα [1]; 10nM compound) was 4%, the “Degradation rate (%) of ERα in T-47D cells” value (ERα [2]; 1nM compound) was 28% and the “Degradation rate (%) of ERα in T-47D cells” value (ERα [2]; 10nM compound) was 23%.
In the case of `C[C@@H]1Cc2c(ccc3[nH]ncc23)[C@@H](c2ccc(N3CCN(C[C@H]4CC[C@H](C(=O)N5CCC6(CC5)COc5c6ccc6c5CN(C5CCC(=O)NC5=O)C6=O)CC4)CC3)cn2)N1CC(F)(F)F` (stereo partly drawn) [A117], the IC50 (T-47D cells; Table 3) is reported as 10.1 nM, the IC50 (MCF-7 cells; [3]) is reported as 63.3 nM and the “Degradation rate (%) of ERα in MCF-7 cells” value (ERα [1]; 1nM compound) is reported as 48%. For the same molecule, the “Degradation rate (%) of ERα in MCF-7 cells” value (ERα [1]; 10nM compound) was 47%, the “Degradation rate (%) of ERα in T-47D cells” value (ERα [2]; 1nM compound) was 66% and the “Degradation rate (%) of ERα in T-47D cells” value (ERα [2]; 10nM compound) was 77%.
For `O=C1CCC(N2Cc3c(ccc4c3OCC43CCN(C(=O)CC4CCN(C(=O)C5CCN(c6ccc([C@@H]7c8ccc(O)cc8CC[C@@H]7c7ccccc7)cc6)CC5)CC4)CC3)C2=O)C(=O)N1` (stereo partly drawn) [A123], the IC50 (T-47D cells; Table 3) was 1.34 nM, the IC50 (MCF-7 cells; [3]) was 164 nM and the “Degradation rate (%) of ERα in MCF-7 cells” value (ERα [1]; 1nM compound) was 29%. For the same molecule, the “Degradation rate (%) of ERα in MCF-7 cells” value (ERα [1]; 10nM compound) was 61%, the “Degradation rate (%) of ERα in T-47D cells” value (ERα [2]; 1nM compound) was 66% and the “Degradation rate (%) of ERα in T-47D cells” value (ERα [2]; 10nM compound) was 84%.
In the case of `O=C1CCC(N2C(=O)c3cc4c(cc3C2=O)OC2(CC4)CN(C3CCC4(CC3)CN(c3ccc(C5c6ccc(O)cc6CCC5c5ccccc5)cc3)C4)C2)C(=O)N1` (stereo not drawn) [B7], the IC50 (T-47D cells; Table 2) is reported as 1000 nM, the IC50 (MCF-7 cells; [3]) is reported as greater than 100 nM and the “Degradation rate (%) of ERα in MCF-7 cells” value (ERα [1]; 10nM compound) is reported as -6%. For the same molecule, the “Degradation rate (%) of ERα in T-47D cells” value (ERα [2]; 10nM compound) was 19%.
In the case of `O=C1CCC(N2Cc3cc4c(cc3C2=O)OC2(CC4)CN(C3CCC4(CC3)CN(c3ccc(C5c6ccc(O)cc6CCC5c5ccccc5)cc3)C4)C2)C(=O)N1` (stereo not drawn) [B8], the IC50 (T-47D cells; Table 2) is reported as 2.9 nM, the IC50 (T-47D cells; Table 3) is reported as 31 nM and the IC50 (MCF-7 cells; [4]) is reported as 90 nM. For the same molecule, the IC50 (MCF-7 cells; [3]) was 6.57 nM, the “Degradation rate (%) of ERα in MCF-7 cells” value (ERα [1]; 10nM compound) was 16% and the “Degradation rate (%) of ERα in T-47D cells” value (ERα [2]; 10nM compound) was 33%.
With `O=C1CCC(N2Cc3cc4c(cc3C2=O)OC2(CC4)CN(C3CCC4(CC3)CN(c3ccc([C@@H]5c6ccc(O)cc6CC[C@@H]5c5ccccc5)cc3)C4)C2)C(=O)N1` (stereo partly drawn) [B9] the IC50 (T-47D cells; Table 3) was 7 nM, the IC50 (MCF-7 cells; [3]) was 86 nM and the “Degradation rate (%) of ERα in MCF-7 cells” value (ERα [1]; 1nM compound) was 0%. For the same molecule, the “Degradation rate (%) of ERα in MCF-7 cells” value (ERα [1]; 10nM compound) was 17%, the “Degradation rate (%) of ERα in T-47D cells” value (ERα [2]; 1nM compound) was 16% and the “Degradation rate (%) of ERα in T-47D cells” value (ERα [2]; 10nM compound) was 45%.
Work on `O=C1CCC(N2Cc3cc4c(cc3C2=O)CCC2(CN(C3CCC5(CC3)CN(c3ccc([C@@H]6c7ccc(O)cc7CC[C@@H]6c6ccccc6)cc3)C5)C2)O4)C(=O)N1` (stereo partly drawn) [B10] yielded an IC50 (T-47D cells; Table 2) of 6.6 nM, an IC50 (T-47D cells; Table 3) of 3 nM and an IC50 (MCF-7 cells; [4]) of 40 nM. The IC50 (MCF-7 cells; [3]) was 37 nM, the “Degradation rate (%) of ERα in MCF-7 cells” value (ERα [1]; 1nM compound) was 3% and the “Degradation rate (%) of ERα in MCF-7 cells” value (ERα [1]; 10nM compound) was 23%. For the same molecule, the “Degradation rate (%) of ERα in T-47D cells” value (ERα [2]; 1nM compound) was 5% and the “Degradation rate (%) of ERα in T-47D cells” value (ERα [2]; 10nM compound) was 46%.
With `O=C1CCC(N2C(=O)c3cc4c(cc3C2=O)OC2(CC4)CN(CC3CC4(CCN(c5ccc([C@@H]6c7ccc(O)cc7CC[C@@H]6c6ccccc6)cc5)CC4)C3)C2)C(=O)N1` (stereo partly drawn) [B11] the IC50 (T-47D cells; Table 3) was 55 nM, the IC50 (MCF-7 cells; [3]) was 4610 nM and the “Degradation rate (%) of ERα in MCF-7 cells” value (ERα [1]; 1nM compound) was -40%. The “Degradation rate (%) of ERα in MCF-7 cells” value (ERα [1]; 10nM compound) was -16%, the “Degradation rate (%) of ERα in T-47D cells” value (ERα [2]; 1nM compound) was -34% and the “Degradation rate (%) of ERα in T-47D cells” value (ERα [2]; 10nM compound) was -38%.
